Columns and labels:
Assay type in all cases: in vivo
corn (Pioneer 3876) = assay: Clomazone injury and dietholate safening of corn, variety Pioneer 3876; details: 14 days
Procedure: (§1) The compounds and compositions of the present invention were tested as water/surfactant solutions on two corn varieties (Pioneer 3733 and Pioneer 3876) and one variety (DPL 61) of cotton. In one embodiment, the safening compound and herbicidal compound were sprayed in admixture as a tank mix onto flats of corn or cotton seeds arranged in a randomized, block design. In another embodiment, the safening compound was applied to the plant seeds by placing the safening compound and the plant seeds in a screw-capped jar, which was rolled on its side until dispersion of the safening compound was complete. Optionally, a sticker compound, for example, without limitation, water or carboxymethylcellulose, can be used to adhere the safening compound to the plant seeds. The treated plant seeds were planted and immediately sprayed with herbicidal compound as described hereinabove. There were four replicates for each rate of application. The emerging corn and cotton plants were maintained in a growth chamber for 14 days after which time they were evaluated for percent injury as compared to an untreated control.

cotton (DPL 61) = assay: Clomazone injury and dietholate safening of cotton, growth chamber, percent injury vs untreated control; details: for Percent Injury: 14 days
Procedure: as §1

corn (Pioneer 3733) = assay: Clomazone injury and dietholate safening of corn, variety Pioneer 3733; details: 14 days
Procedure: as §1

[1] = system: two corn varieties (Pioneer 3733 and Pioneer 3876); assay: Clomazone injury and dietholate safening of corn, both varieties together; details: clomazone without the safening compound dietholate
Procedure: as §1, with “control. […]” for “control.”

CC1(C)CON(Cc2ccccc2Cl)C1=O [Clomazone, 2-[(2-chlorophenyl)methyl]-4,4-dimethyl-3-isoxazolidinone]
Percent Injury (corn (Pioneer 3876); clomazone 0.06 kg/ha alone): 1%
Percent Injury (corn (Pioneer 3876); clomazone 0.12 kg/ha alone): 15%
Percent Injury (corn (Pioneer 3876); clomazone 0.24 kg/ha alone): 59%
Percent Injury (cotton (DPL 61); clomazone 0.25 kg/ha alone): 46%
Percent Injury (cotton (DPL 61); clomazone 0.50 kg/ha alone): 77%
Percent Injury (cotton (DPL 61); clomazone 1.0 kg/ha alone): 91%
injury to cotton (in words) (cotton (DPL 61); clomazone without the safening compound dietholate): significant injury
Percent Injury (corn (Pioneer 3733); clomazone 0.06 kg/ha alone): 2%
Percent Injury (corn (Pioneer 3733); clomazone 0.12 kg/ha alone): 28%
Percent Injury (corn (Pioneer 3733); clomazone 0.24 kg/ha alone): 75%
injury to corn (in words) [1]: significant injury

From patent US6855667B2, “Method for safening crops from the phytotoxic effects of herbicides by use of phosphorated esters” (priority 2000, dated 2005)
